Key:
[1] = biological target: T1, AURKA (Homo sapiens, UniProt O14965); format: cell-based; conditions: Jurkat cells, 24 h, Table 1
T1 construct: endogenous in cells; host or cells: Jurkat cells
T1 sequence (O14965 1-403): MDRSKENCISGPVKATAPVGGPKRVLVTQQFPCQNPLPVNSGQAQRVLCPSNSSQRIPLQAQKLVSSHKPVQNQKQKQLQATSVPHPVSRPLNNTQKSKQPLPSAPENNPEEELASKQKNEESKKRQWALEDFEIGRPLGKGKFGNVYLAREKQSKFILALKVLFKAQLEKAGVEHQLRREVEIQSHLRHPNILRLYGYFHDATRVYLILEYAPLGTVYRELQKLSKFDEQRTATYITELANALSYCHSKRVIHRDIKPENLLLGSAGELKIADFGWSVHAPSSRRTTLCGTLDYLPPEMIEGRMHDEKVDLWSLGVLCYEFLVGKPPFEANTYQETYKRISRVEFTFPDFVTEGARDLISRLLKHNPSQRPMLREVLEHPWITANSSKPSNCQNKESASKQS
How it was run: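 AURKA degradation read by western blot: band signal, fluorescent or chemiluminescent, curve-fitted to derive DC50. Cells were Jurkat, plated at 1×10^6 cells/500 µL with compound, then lysed and blotted onto nitrocellulose, primary antibody overnight at 4°C.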

[2] = test system: HCC1806 cells; assay: CTG assay of compound inhibition on cell viability (HCC1806 cells); format: cell-based; conditions: Homo sapiens, HCC1806, 144 h, read-out: IC50 in HCC1806 Cells
Procedure: CellTiter-Glo (CTG) is a rapid cell viability test method based on ATP detection. […] Adenosine triphosphate (ATP) participates in various enzymatic reactions in organisms and is an indicator of living cell metabolism. Its content directly reflects the number of living cells and cell status. During the experiment, equal volume of CTG reagent is added to the cultured cells to measure the luminescence value. The chemiluminescent signal value is proportional to the amount of ATP, thus reflecting the number of viable cells. Therefore, cell viability can be obtained by detecting the ATP content. Compounds that affect cell viability will inhibit cell viability in a concentration-dependent manner, allowing a curve to be fitted to obtain the IC50 value.
The experimental procedure is as follows: • 11. Place the cell suspension in a 15 mL centrifuge tube, centrifuge at 1000 rpm for 5 min at room temperature, discard the supernatant, and collect the cell pellet. • 12. Resuspend the cell pellet with preheated complete cell culture medium (RPMI1640+10%FBS+1%PS), and use a Countess® automated cell counter to detect cell viability and density. The cell viability must be above 90%. • 13. […] Transfer the compound solution to a 96-well plate seeded with cells (final concentration of DMSO 0.1%), and place in a cell incubator at 37°C, 5% CO2 for 6 days. • 15. […] Protect from light during the whole process. Perform optical signal readings using a SpectraMax i3x reader. • 16. Data analysis: Remaining activity (%) = 100% * (1 - ((LumDMSO - Lummedium) - Lumsample) / (LumDMSO - LumPBS/medium)). Use GraphPad Prism 9.0 software to draw an S-shaped dose-survival rate curve and calculate the IC50 value using a nonlinear regression model.

## O=C1CCN(c2ccc(N3CCN(C4CN(C(=O)c5ccc(Nc6ncc7c(n6)-c6ccc(Cl)cc6C(c6c(F)cccc6F)=NC7)cc5)C4)CC3)cc2)C(=O)N1 [Compound A19]
[1]
  Percentage of AURKA Degradation Induced by 100 nM Compound in Jurkat Cells: ++ (30% < Degradation ≤ 70%)
  Percentage of AURKA Degradation Induced by 1 µM Compound in Jurkat Cells: + (Degradation ≤ 30%)
[2]
  IC50: < 1000 nM

## COc1cc(Nc2ncc3c(n2)-c2ccc(Cl)cc2C(c2c(F)cccc2OC)=NC3)ccc1C(=O)NCCN1CCN(c2cccn3c(N4CCC(=O)NC4=O)cnc23)CC1 [Compound A21]
[1]
  Percentage of AURKA Degradation Induced by 100 nM Compound in Jurkat Cells: +++ (Degradation > 70%)
  Percentage of AURKA Degradation Induced by 1 µM Compound in Jurkat Cells: +++ (Degradation > 70%)
[2]
  IC50: < 1000 nM

## O=C1CCN(c2cnc3c(N4CCN(CCNC(=O)c5ccc(Nc6ncc7c(n6)-c6ccc(Cl)cc6C(c6c(F)cccc6F)=NC7)cc5)CC4)cccn23)C(=O)N1 [Compound A22]
[1]
  Percentage of AURKA Degradation Induced by 100 nM Compound in Jurkat Cells: +++ (Degradation > 70%)
  Percentage of AURKA Degradation Induced by 1 µM Compound in Jurkat Cells: +++ (Degradation > 70%)
[2]
  IC50: < 1000 nM

## COc1cc(Nc2ncc3c(n2)-c2ccc(Cl)cc2C(c2c(F)cccc2OC)=NC3)ccc1C(=O)NCCN1CCC(n2cnc(N3CCC(=O)NC3=O)c2)CC1 [Compound A23]
[1]
  Percentage of AURKA Degradation Induced by 100 nM Compound in Jurkat Cells: + (Degradation ≤ 30%)
  Percentage of AURKA Degradation Induced by 1 µM Compound in Jurkat Cells: + (Degradation ≤ 30%)
[2]
  IC50: < 1000 nM

## COc1cc(Nc2ncc3c(n2)-c2ccc(Cl)cc2C(c2c(F)cccc2OC)=NC3)ccc1C(=O)NCCN1CCN(c2ncc(N3CCC(=O)NC3=O)s2)CC1 [Compound A24]
[1]
  Percentage of AURKA Degradation Induced by 100 nM Compound in Jurkat Cells: +++ (Degradation > 70%)
  Percentage of AURKA Degradation Induced by 1 µM Compound in Jurkat Cells: ++ (30% < Degradation ≤ 70%)
[2]
  IC50: < 1000 nM

## O=C1CCN(c2cnc(N3CCN(CCNC(=O)c4ccc(Nc5ncc6c(n5)-c5ccc(Cl)cc5C(c5c(F)cccc5F)=NC6)cc4)CC3)s2)C(=O)N1 [Compound A25]
[1]
  Percentage of AURKA Degradation Induced by 100 nM Compound in Jurkat Cells: +++ (Degradation > 70%)
  Percentage of AURKA Degradation Induced by 1 µM Compound in Jurkat Cells: ++ (30% < Degradation ≤ 70%)
[2]
  IC50: < 1000 nM

## COc1cc(Nc2ncc3c(n2)-c2ccc(Cl)cc2C(c2c(F)cccc2OC)=NC3)ccc1C(=O)NCCC#Cc1ccc(N2CCC(=O)NC2=O)cc1 [Compound A26]
[1]
  Percentage of AURKA Degradation Induced by 100 nM Compound in Jurkat Cells: + (Degradation ≤ 30%)
  Percentage of AURKA Degradation Induced by 1 µM Compound in Jurkat Cells: + (Degradation ≤ 30%)
[2]
  IC50: < 1000 nM

## COc1cc(Nc2ncc3c(n2)-c2ccc(Cl)cc2C(c2c(F)cccc2OC)=NC3)ccc1C(=O)NCC1CCN(Cc2ccc(N3CCC(=O)NC3=O)cc2)CC1 [Compound A27]
[1]
  Percentage of AURKA Degradation Induced by 100 nM Compound in Jurkat Cells: + (Degradation ≤ 30%)
  Percentage of AURKA Degradation Induced by 1 µM Compound in Jurkat Cells: + (Degradation ≤ 30%)
[2]
  IC50: 1000 to 10000 nM

## COc1cc(Nc2ncc3c(n2)-c2ccc(Cl)cc2C(c2c(F)cccc2OC)=NC3)ccc1C(=O)NC1CCN(Cc2ccc(N3CCC(=O)NC3=O)cc2)CC1 [Compound A28]
[1]
  Percentage of AURKA Degradation Induced by 100 nM Compound in Jurkat Cells: + (Degradation ≤ 30%)
  Percentage of AURKA Degradation Induced by 1 µM Compound in Jurkat Cells: + (Degradation ≤ 30%)
[2]
  IC50: < 1000 nM

## COc1cc(Nc2ncc3c(n2)-c2ccc(Cl)cc2C(c2c(F)cccc2OC)=NC3)ccc1C(=O)NCCN1CCN(c2ccc(N3CCC(=O)NC3=O)cn2)CC1 [Compound A29]
[1]
  Percentage of AURKA Degradation Induced by 100 nM Compound in Jurkat Cells: +++ (Degradation > 70%)
  Percentage of AURKA Degradation Induced by 1 µM Compound in Jurkat Cells: +++ (Degradation > 70%)
[2]
  IC50: < 1000 nM

## COc1cc(Nc2ncc3c(n2)-c2ccc(Cl)cc2C(c2c(F)cccc2OC)=NC3)ccc1C(=O)NC1CC(C#Cc2cccc(N3CCC(=O)NC3=O)c2)C1 (centres unmarked) [Compound A50]
[2]
  IC50: < 1000 nM

## O=C1CCN(c2cccc(C#CC34CC(NC(=O)c5ccc(Nc6ncc7c(n6)-c6ccc(Cl)cc6C(c6c(F)cccc6F)=NC7)cc5)(C3)C4)c2)C(=O)N1 [Compound A76]
[2]
  IC50: 1000 to 10000 nM
